Data taken from US6716613B1, “Metalloprotease having aggrecanase activity” (Yamanouchi Pharmaceutical Co., Ltd., priority 1999, dated 2004).

Key:
MDTS6Cys = target: T1, MDTS6Cys (Homo sapiens, UniProt Q8TE58); experiment: ELISA screening system for aggrecanase activity inhibition (anti-aggrecanase neoepitope antibody); type: biochemical; conditions: MDTS6Cys culture supernatant, recombinant aggrecan G1G2 substrate, 37° C. for several hours; read-out: aggrecanase activity inhibition strength (IC50)
T1 construct: made in house; host or cells: HEK293-EBNA cells; unpurified culture supernatant used as enzyme source
T1 sequence (Q8TE58 213-687): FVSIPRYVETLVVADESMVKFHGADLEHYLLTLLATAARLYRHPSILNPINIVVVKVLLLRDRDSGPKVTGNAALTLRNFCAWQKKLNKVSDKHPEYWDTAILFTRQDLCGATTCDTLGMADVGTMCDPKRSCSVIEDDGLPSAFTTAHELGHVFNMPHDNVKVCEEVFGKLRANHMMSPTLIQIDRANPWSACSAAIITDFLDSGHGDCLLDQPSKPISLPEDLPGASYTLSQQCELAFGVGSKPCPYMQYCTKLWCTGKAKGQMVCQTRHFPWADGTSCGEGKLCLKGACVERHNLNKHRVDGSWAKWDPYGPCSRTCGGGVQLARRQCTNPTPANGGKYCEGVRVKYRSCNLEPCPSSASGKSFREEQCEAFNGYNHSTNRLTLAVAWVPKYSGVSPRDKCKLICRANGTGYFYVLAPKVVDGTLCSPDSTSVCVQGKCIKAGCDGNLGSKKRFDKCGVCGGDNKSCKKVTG
Description: The criterion to screen a substance which inhibits the aggrecanase activity is preferably 10 μM or less, more preferably 1.0 μM or less, as inhibition activity strength (IC50)

[1] = test system: rabbit knee joint cartilage primary culture cells; experiment: Proteoglycan degradation/release in rabbit knee joint cartilage primary culture cells (35S label); type: cell-based; conditions: compound added just before stimulation with 10 μM of all-trans retinoic acid
Description: After killing a rabbit (Japanese white species, male, 1.0 to 1.5 kg) under excess anesthesia, a knee joint was excised and the cartilage layer on the joint surface was removed and finely cut using a surgical knife. The cut pieces were treated with trypsin-EDTA (0.25%-1 mM; mfd. by GIBCO-BRL) at 37° C. for 1 hour and then centrifuged at 1,500 rpm for 5 minutes, and the resulting precipitate was washed with DMEM. This was treated with collagenase A (0.15%; Boehringer-Mannheim)/DMEM at 37° C. for 3 to 4 hours, and then a nylon mesh filter (100 μm, mfd. by Falcon)-passed fraction was centrifuged at 1,500 rpm for 5 minutes to effect precipitation of cartilage cells. The cells were thoroughly washed with DMEM/10% FBS medium, suspended in DMEM/10% FBS medium to a density of 2×10^5 cells/ml and then inoculated in 200 μl/well portions into an I type collagen-coated 96 well plate (mfd. by Asahi Technoglass). Three days thereafter, the medium was changed to 200 μof DMEM/10% FBS medium containing 50 μg/ml of ascorbic acid (ascorbic acid medium hereinafter), and the culturing was continued for 3 days. When an I type collagen-coated 6 well plate (Asahi Technoglass) was used, the cell suspension was inoculated in 6 ml/well portions and cultured by carrying out the same medium exchange. These cells were used in the following test.
The rabbit knee joint cartilage primary culture cells of 96 well plate described in Example 11-1 were cultured for 2 days using 200 μl of the ascorbic acid medium supplemented with 10 μCi/ml in final concentration of Na2^35SO4 and labeled therewith, washed 3 times with 200 μl of the ascorbic acid medium and then cultured for 1 day using 200 μl of the ascorbic acid medium. After stimulation with IL-1β or all-trans retinoic acid and subsequent 0, 24, and 48 hours of culturing, the culture supernatants were recovered in 20 μl portions, and the radioactivity was measured using Top Count (mfd. by Packard).
Each of the compounds A, B, C and D selected by the screening system of Example 10-2 was added to the proteoglycan degradation system of rabbit knee joint cartilage primary culture cells just before the stimulation with 10 μM of all-trans retinoic acid, and their proteoglycan degradation inhibitory activities were examined.

For CNC(=O)[C@H](Cc1ccccc1)NC(=O)C(CC(C)C)C(CS)C(=O)NO (stereo partly drawn) [compound B, N^α-[2-(1-hydroxycarbamoyl-2-sulfanylethyl)-4-methylpentanoyl]-N-methylphenylalanineamide], the IC50 (MDTS6Cys) was 1000 nM and the “inhibition of proteoglycan degradation (in words, FIG. 8)” value [1] was “inhibition of proteoglycan degradation in a concentration-dependent manner”.
